Assay results: patent US20100267561A1, “HERBICIDAL PYRIDAZINONE DERIVATIVES” (priority 2007, published 2010)

Legend:
[1] = system: johnsongrass (Sorghum halepense); experiment: Test B pre-/postemergence plant response; type: in vivo
How it was run: (§1)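 Visual scoring from 0 (no effect) to 100 (complete control) against untreated controls was done 13 to 15 days after greenhouse treatment. Chemicals were formulated in a surfactant-containing non-phytotoxic solvent and applied to soil preemergence or to 1- to 4-leaf (2-18 cm) plants postemergence.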

[2] = system: surinam grass (Brachiaria decumbens); experiment: Test B pre-/postemergence plant response; type: in vivo
How it was run: as §1

[3] = 8 g ai/ha, postemergence, 0-100 scale
[4] = 16 g ai/ha, postemergence, 0-100 scale
[5] = Postemergence, 31 g ai/ha, scale 0 to 100
[6] = Postemergence, 62 g ai/ha, scale 0 to 100, 0 no effect, 100 complete control
[7] = Preemergence, 8 g ai/ha, scale 0 to 100 (0 no effect, 100 complete control)
[8] = Preemergence, 31 g ai/ha, scale 0 to 100 (0 no effect, 100 complete control)
[9] = Preemergence, 62 g ai/ha, 0 to 100 scale, 0 no effect, 100 complete control
[10] = Preemergence, 16 g ai/ha, scale 0 to 100
[11] = Preemergence, 8 g ai/ha, scale 0 to 100
[12] = Postemergence, 16 g ai/ha, scale 0 to 100
[13] = Preemergence, 16 g ai/ha, scale 0 to 100 (0 no effect, 100 complete control)
[14] = Preemergence, 31 g ai/ha, 0 to 100 scale, 0 no effect, 100 complete control
[15] = Preemergence, 62 g ai/ha, scale 0 to 100

SMILES | Johnsongrass plant response rating [1, 3] | Johnsongrass plant response rating [1, 4] | Plant response rating, Johnsongrass [1, 5] | Plant response rating, Johnsongrass [1, 6] | Surinam Grass plant response rating [2, 3] | Surinam Grass plant response rating [2, 4] | Plant response rating, Surinam Grass [2, 5] | Plant response rating, Surinam Grass [2, 6] | Plant response rating, Johnsongrass [1, 8] | Plant response rating, Johnsongrass [1, 9] | Johnsongrass plant response rating [1, 10] | Plant response rating, Surinam Grass [2, 8] | Plant response rating, Surinam Grass [2, 9] | Surinam Grass plant response rating [2, 10] | Johnsongrass plant response rating [1, 11] | Surinam Grass plant response rating [2, 11] | further results
COCc1cc(-c2ccc(Br)cc2)nn1-c1c(O)cnn(C)c1=O [Compound 68] | 0 | 0 | 0 | 30 | 35 | 35 | 80 | 80 | – | – | – | – | – | – | – | – | –
Cc1nn(C)c(=O)c(-n2nc(-c3ccc(Br)cc3)cc2C)c1O [Compound 81] | 75 | 95 | – | 100 | 90 | 98 | 100 | 100 | 95 | 95 | 80 | 100 | 100 | 85 | – | – | Johnsongrass plant response rating [1, 7]: 60; Surinam Grass plant response rating [2, 7]: 60
Cc1cc(-c2ccc(Cl)cc2)nn1-c1c(OC(=S)N(C)C)cnn(C)c1=O [Compound 69] | 60 | 65 | 70 | 75 | 65 | 75 | 80 | 95 | 0 | 0 | 0 | 15 | 35 | 0 | 0 | 0 | –
CCc1cc(-c2ccc(Cl)cc2)nn1-c1c(OS(C)(=O)=O)cnn(C)c1=O [Compound 39] | 40 | – | – | 95 | 100 | – | – | 100 | – | – | – | – | – | – | 75 | 90 | Plant response rating, Johnsongrass [1, 12]: 55; Plant response rating, Johnsongrass ([1]; Postemergence, 31 g ai/ha, scale 0 to 100, 0 no effect, 100 complete control): 95; Plant response rating, Johnsongrass [1, 13]: 90; Plant response rating, Johnsongrass [1, 14]: 90; Plant response rating, Johnsongrass [1, 15]: 95; Plant response rating, Surinam Grass [2, 12]: 100; Plant response rating, Surinam Grass [2, 13]: 95; Plant response rating, Surinam Grass [2, 14]: 100; Plant response rating, Surinam Grass [2, 15]: 100
